Values quoted from earlier work as cited in patent publication US7052717B2, “Storage stable thyroxine active drug formulations and methods for their production” (Mylan Pharmaceuticals Inc., priority 2001, dated 2006).

Conditions: high humidity, light or high temperature; Won, Pharm. Res. 9(1):131-137, 1992

SMILES: N[C@@H](Cc1cc(I)c(Oc2cc(I)c(O)c(I)c2)c(I)c1)C(=O)O [Levothyroxine sodium, levothyroxine sodium]
- stability of drug substance: quite unstable, hygroscopic and degrades rapidly when subjected to high humidity, light or high temperature
